Laboratory results as given in US20200339548A1, “PYRIMIDINE DERIVATIVES AND THEIR USE FOR THE TREATMENT OF CANCER” (Adorx Therapeutics Limited, priority 2017, published 2020).
Structures can show the parent of a compound that is named as a salt. Where two headings read alike, the source gives them in different places.

Experiments:
[1] = molecular target: T1, Adenosine A3 receptor (Homo sapiens, UniProt P0DMS8); assay: Adenosine receptor TR-FRET binding assay, A3
T1 construct: expressed in transfected cells; host or cells: CHO cell membranes
T1 sequence (P0DMS8 1-318): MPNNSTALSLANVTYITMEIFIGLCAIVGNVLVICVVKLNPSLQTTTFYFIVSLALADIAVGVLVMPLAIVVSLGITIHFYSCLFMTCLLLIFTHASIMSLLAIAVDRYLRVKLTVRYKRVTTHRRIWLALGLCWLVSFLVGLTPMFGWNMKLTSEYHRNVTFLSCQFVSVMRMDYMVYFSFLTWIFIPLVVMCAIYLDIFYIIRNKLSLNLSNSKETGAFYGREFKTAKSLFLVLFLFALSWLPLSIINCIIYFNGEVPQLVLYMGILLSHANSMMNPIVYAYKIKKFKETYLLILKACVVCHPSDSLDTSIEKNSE
Description: (§1) All FRET binding experiments were conducted at room temperature in white 384-well plates, in assay binding buffer containing 1× LabMed (Cisbio, France), 100 μg/mL saponin, 1% DMSO and 0.02% pluronic acid. Binding of the fluorescently labelled Adenosine receptor antagonist XAC (CA200645, FRET acceptor) to terbium-labelled A1, A2a, A2b and A3 adenosine receptors (FRET donors) was detected by time-resolved FRET due to the close proximity of the donor and acceptor in a binding event. To investigate the ability of unlabelled test compounds to bind to Adenosine A1, A2a, A2b and A3 receptors, dose response curves were constructed that determined the ability of a range of concentrations to inhibit the binding of 30 nM CA200645 to the A2b receptor and 100 nM CA200645 to the A1, A2a, and A3 receptor.
(§2) Serial dilution (1:3 dilutions) of test compounds in neat DMSO and transfer of a 400 nL sample of test compound into the assay plate was carried out using the Mosquito (TTP Labtech, UK). The compound samples were incubated for 2 hours at room temperature with a fixed concentration of CA200645 defined for each receptor (see above) and CHO cell membranes containing the human Adenosine A1 (0.5 μg/well), A2a (0.3 μg/well), A2b (1 μg/well) or A3 (1 μg/well) receptor in 40 μL of assay buffer. Total and non-specific binding of CA200645 was determined in the absence and presence of 10 μM XAC, respectively.
(§3) Following 2 hours incubation, the level of CA200645 binding was detected on a Pherastar FSX (BMG Labtech, Germany) using standard TR-FRET settings. The terbium donor was excited with three laser flashes at a wavelength of 337 nm, and donor and acceptor emission was detected at 620 nm and 665 nm wavelengths, respectively. FRET ratios were obtained by multiplying the acceptor/donor ratio value by 10,000. Specific binding was determined by subtracting the non-specific binding FRET ratio from the total binding FRET ratio. Compound IC50 curves were analysed using GraphPad Prism 7.0 (GraphPad, USA) and Ki affinity values were determined from the obtained […] values using the method of Cheng and Prusoff.

[2] = molecular target: T2, Adenosine A2b receptor (Homo sapiens, UniProt P29275); assay: Adenosine receptor TR-FRET binding assay, A2b; settings: Table 9, further testing; displacement of 30 nM CA200645, CHO cell membranes
T2 construct: expressed in transfected cells; host or cells: CHO cell membranes
T2 sequence (P29275 1-332): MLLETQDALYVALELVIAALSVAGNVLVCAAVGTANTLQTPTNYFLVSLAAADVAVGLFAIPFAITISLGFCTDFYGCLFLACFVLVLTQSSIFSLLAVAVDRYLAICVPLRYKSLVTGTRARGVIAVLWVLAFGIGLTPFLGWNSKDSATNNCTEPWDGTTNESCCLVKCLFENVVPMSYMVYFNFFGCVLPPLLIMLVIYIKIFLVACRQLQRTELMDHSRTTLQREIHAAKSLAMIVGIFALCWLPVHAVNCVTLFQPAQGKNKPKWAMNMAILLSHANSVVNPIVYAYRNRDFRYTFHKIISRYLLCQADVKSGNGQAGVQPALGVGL
Description: as §1, §2, §3

[3] = molecular target: T3, Adenosine A1 receptor (Homo sapiens, UniProt P30542); assay: Adenosine receptor TR-FRET binding assay, A1; settings: Table 9, further testing; displacement of 100 nM CA200645, CHO cell membranes
T3 construct: expressed in transfected cells; host or cells: CHO cell membranes
T3 sequence (P30542 1-326): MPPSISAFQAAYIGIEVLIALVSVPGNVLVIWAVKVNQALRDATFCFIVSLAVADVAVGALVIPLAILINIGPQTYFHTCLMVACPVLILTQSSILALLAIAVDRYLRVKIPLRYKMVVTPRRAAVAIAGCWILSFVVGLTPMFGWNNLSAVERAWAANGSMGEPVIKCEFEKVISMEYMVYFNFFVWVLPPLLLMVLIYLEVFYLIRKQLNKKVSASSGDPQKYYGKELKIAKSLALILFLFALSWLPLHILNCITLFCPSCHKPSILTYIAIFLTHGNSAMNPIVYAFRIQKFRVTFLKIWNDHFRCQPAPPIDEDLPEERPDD
Description: as §1, §2, §3

[4] = molecular target: T4, Adenosine A2a receptor (Homo sapiens, UniProt P29274); assay: Adenosine receptor TR-FRET binding assay, A2a; settings: displacement of 100 nM CA200645, CHO cell membranes
T4 construct: expressed in transfected cells; host or cells: CHO cell membranes
T4 sequence (P29274 whole entry): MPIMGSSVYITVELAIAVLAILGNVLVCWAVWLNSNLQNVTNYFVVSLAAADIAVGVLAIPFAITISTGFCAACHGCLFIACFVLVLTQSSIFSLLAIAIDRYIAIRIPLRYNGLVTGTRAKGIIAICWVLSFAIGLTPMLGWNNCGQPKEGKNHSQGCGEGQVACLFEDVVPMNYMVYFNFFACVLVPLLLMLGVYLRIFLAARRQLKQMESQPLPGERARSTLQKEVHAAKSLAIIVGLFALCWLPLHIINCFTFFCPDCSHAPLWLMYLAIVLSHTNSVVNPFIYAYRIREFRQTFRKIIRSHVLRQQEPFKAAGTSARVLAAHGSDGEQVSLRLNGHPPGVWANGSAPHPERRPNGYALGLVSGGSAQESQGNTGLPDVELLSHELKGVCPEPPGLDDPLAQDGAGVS
Description: as §1, §2, §3

[5] = Table 9, further testing, displacement of 100 nM CA200645, CHO cell membranes, read-out: A3 Ki

Row | Ki [1, 5] [nM] | Ki [2] [nM] | Ki [3] [nM] | Ki ([4]; Table 8, Cheng and Prusoff) [nM] | Ki ([4]; Table 9, further testing) [nM] | SMILES | Ki [1] [nM]
1 | 1800 | 8490 | 4440 | 796 | 796 | Cc1ccc(CNC(=O)c2cnc(-c3cccc(F)c3)nc2N)cc1 [Example 10, 4-Amino-2-(3-fluorophenyl)-N-(p-tolylmethyl)pyrimidine-5-carboxamide] | 
2 | 753 | 2130 | 521 |  | 21 | Cc1cc(C)cc(CNC(=O)c2cnc(-c3ccco3)nc2N)c1 [Example 5.39, 4-Amino-N-[(3,5-dimethylphenyl)methyl]-2-(2-furyl)pyrimidine-5-carboxamide] | 
3 | 6030 | 4690 | 4860 | 24 | 24 | CCn1ccnc1CNC(=O)c1cnc(-c2ccco2)nc1N [Example 5.26, 4-Amino-N-[(1-ethylimidazol-2-yl)methyl]-2-(2-furyl)pyrimidine-5-carboxamide] | 
4 | 2680 | 3970 | 3550 | 20 | 20 | Nc1nc(-c2ccco2)ncc1C(=O)NCc1cccc(F)c1 [Example 5.13, 4-Amino-N-[(3-fluorophenyl)methyl]-2-(2-furyl)pyrimidine-5-carboxamide] | 
5 | 504 | 1360 | 598 | 180 | 180 | Nc1nc(-c2cccc(F)c2)ncc1C(=O)NCc1cccc(F)c1 [Example 10.3, 4-Amino-2-(3-fluorophenyl)-N-[(3-fluorophenyl)methyl]pyrimidine-5-carboxamide] | 
6 | 1190 | 3890 | 314 | 20 | 20 | Cc1cccnc1CNC(=O)c1c(N)nc(-c2ccco2)nc1Cl [Example 13, 4-Amino-6-chloro-2-(2-furyl)-N-[(3-methyl-2-pyridyl)methyl]pyrimidine-5-carboxamide] | 
7 | 2150 | 3060 | 1060 |  | 23 | Cc1cccnc1CNC(=O)c1c(N)nc(-c2ccco2)nc1OCCCN [Example 23.5, 4-Amino-6-(3-aminopropoxy)-2-(2-furyl)-N-[(3-methyl-2-pyridyl)methyl]pyrimidine-5-carboxamide dihydrochloride] | 
8 | 86 | 107 | 5.4 |  | 0.13 | Cc1cccnc1CNC(=O)c1c(N)nc(-c2ccco2)nc1OCCO [Example 20.1, 4-Amino-2-(2-furyl)-6-(2-hydroxyethoxy)-N-[(3-methyl-2-pyridyl)methyl]pyrimidine-5-carboxamide] | 
9 | 73 | 490 | 59 |  | 0.62 | Cc1cccnc1CNC(=O)c1c(N)nc(-c2ccco2)nc1OCCN [Example 23.1, 4-Amino-6-(2-aminoethoxy)-2-(2-furyl)-N-[(3-methyl-2-pyridyl)methyl]pyrimidine-5-carboxamide] | 
10 | 1910 | 1410 | 1040 |  | 10 | Cc1cccc(CNC(=O)c2cnc(-c3ccco3)nc2N)c1 [Example 5.34, 4-Amino-2-(2-furyl)-N-(m-tolylmethyl) pyrimidine-5-carboxamide] | 
11 | 2170 | 1210 | 3990 | 5.1 | 5.1 | Nc1nc(-c2ccco2)ncc1C(=O)NCc1ccccc1Cl [Example 5.15, 4-Amino-N-[(2-chlorophenyl)methyl]-2-(2-furyl)pyrimidine-5-carboxamide] | 
12 | 3050 | 420 | 7960 |  | 23 | Nc1nc(-c2ccco2)ncc1C(=O)NCc1ncccc1F [Example 5.48, 4-Amino-N-[(3-fluoro-2-pyridyl)methyl]-2-(2-furyl)pyrimidine-5-carboxamide] | 
13 | 24 | 165 | 7.5 |  | 0.199 | Cc1cccnc1CNC(=O)c1c(N)nc(-c2ccco2)nc1OCCCO [Example 20.8, 4-Amino-2-(2-furyl)-6-(3-hydroxypropoxy)-N-[(3-methyl-2-pyridyl)methyl]pyrimidine-5-carboxamide] | 
14 | 9.9 | 37 | 4 |  | 0.21 | Cc1cccnc1CNC(=O)c1c(N)nc(-c2ccco2)nc1OCC(F)(F)F [Example 20.2, 4-Amino-2-(2-furyl)-N-[(3-methyl-2-pyridyl)methyl]-6-(2,2,2-trifluoroethoxy)pyrimidine-5-carboxamide] | 
15 | 5920 | 5140 | 4780 |  | 58 | COc1cc(CNC(=O)c2cnc(-c3ccco3)nc2N)cc(OC)c1 [Example 5.43, 4-Amino-N-[(3,5-dimethoxyphenyl)methyl]-2-(2-furyl)pyrimidine-5-carboxamide] | 
16 | 1.4 | 540 | 13 |  | 0.21 | COCC(C)Oc1nc(-c2ccco2)nc(N)c1C(=O)NCc1ncccc1C (stereo not drawn) [Example 20.12, 4-Amino-2-(2-furyl)-6-(2-methoxy-1-methyl-ethoxy)-N-[(3-methyl-2-pyridyl)methyl]pyrimidine-5-carboxamide] | 
17 | 24 | 1100 | 137 | 51 | 51 | Cc1cccnc1CNC(=O)c1nnc(-c2ccc(F)cc2)nc1N [Example 8, 5-Amino-3-(4-fluorophenyl)-N-[(3-methyl-2-pyridyl)methyl]-1,2,4-triazine-6-carboxamide] | 
18 | 1410 | 437 | 1890 |  | 3.3 | Cc1cccc(CNC(=O)c2cnc(-c3ccco3)nc2N)n1 [Example 5.32, 4-Amino-2-(2-furyl)-N-[(6-methyl-2-pyridyl)methyl]pyrimidine-5-carboxamide] | 
19 | 300 | 2970 | 658 | 137 | 137 | Nc1nc(-c2cccc(F)c2)ncc1C(=O)NCc1ccccc1Cl [Example 10.5, 4-Amino-N-[(2-chlorophenyl)methyl]-2-(3-fluorophenyl)pyrimidine-5-carboxamide] | 

Row | SMILES | Ki [1, 5] [nM] | Ki [2] [nM] | Ki [3] [nM] | Ki ([4]; Table 8, Cheng and Prusoff) [nM] | Ki ([4]; Table 9, further testing) [nM] | Ki [1] [nM]
20 | Cc1cccnc1CNC(=O)c1c(N)nc(-c2ccco2)nc1OCC(C)C [Example 20.3, 4-Amino-2-(2-furyl)-6-isobutoxy-N-[(3-methyl-2-pyridyl)methyl]pyrimidine-5-carboxamide] | 1.7 | 174 | 4.1 |  | 0.47 | 
21 | COc1cc(CNC(=O)c2cnc(-c3cccc(F)c3)nc2N)cc(OC)c1 [Example 10.9, 4-Amino-N-[(3,5-dimethoxyphenyl)methyl]-2-(3-fluorophenyl)pyrimidine-5-carboxamide] |  | 1170 | 811 | 661 | 661 | 1160
